Entries after “also recorded” stand apart in the source; their conditions may differ. Where only a bound is given, the exact number is not on record here.

Data set [1] concerns the target T1, ACSS2 (Homo sapiens, UniProt Q9NR19). The experiment in a line: cell-based.
Description: Testing the inhibitory effect of compounds on the cellular activity of ACSS2 was done by tracing the incorporation of ^13C from ^13C-acetate into fatty-acids in MDA-MB-468 cells under hypoxic conditions of 1% O2. The assay was done for 5 hours in DMEM with 5.5 mM glucose, 1 mM sodium Pyruvate, 0.65 mM Glutamine, 3.5 ug/ml Biotin, 1% dialyzed serum, 0.5 mM 13 C-acetate and with different concentrations of the inhibitors. At the end of the incubation, the cells were washed with cold PBS, harvested into glass tubes and undergo saponification. The level of ^13C incorporation into Palmitate was done by LC-MS analysis and the level of inhibition was calculated with PRISM software.
The target in data set [2] is T1, ACSS2. The experiment in a line: biochemical.
For the next data set, the system named is HCT116. The experiment in a line: In-vivo model that does not utilize acetate (HCT116). The settings on record: daily oral dosing.
For data set [3], the system named is MDA-MB-468 breast cancer cells xenograft. Briefly: In-vivo efficacy study in MDA-MB-468 breast cancer cells xenograft. Particulars: 100 mg/kg orally once daily; female NMRI nude mice. The procedure: An in-vivo efficacy study was carried out by Charles-River Laboratories at the Freiburg, Germany site.
Tumor fragments from Breast cancer cell line MDA-MB-468 passaged as subcutaneous xenograft were subcutaneously implanted into female NMRI nude mice (Crl:NMRI-Foxnlnu). The animals were randomized into groups (n=10) when tumors volume reached 50 to 250 mm3. […] Body weights and tumor volume [mm3] by caliper were measured twice weekly.

A further data set deals with T2, ACSS1 (Homo sapiens, UniProt Q9NUB1).
T2 construct: purchased Cusabio, China
T2 sequence (Q9NUB1 38-689): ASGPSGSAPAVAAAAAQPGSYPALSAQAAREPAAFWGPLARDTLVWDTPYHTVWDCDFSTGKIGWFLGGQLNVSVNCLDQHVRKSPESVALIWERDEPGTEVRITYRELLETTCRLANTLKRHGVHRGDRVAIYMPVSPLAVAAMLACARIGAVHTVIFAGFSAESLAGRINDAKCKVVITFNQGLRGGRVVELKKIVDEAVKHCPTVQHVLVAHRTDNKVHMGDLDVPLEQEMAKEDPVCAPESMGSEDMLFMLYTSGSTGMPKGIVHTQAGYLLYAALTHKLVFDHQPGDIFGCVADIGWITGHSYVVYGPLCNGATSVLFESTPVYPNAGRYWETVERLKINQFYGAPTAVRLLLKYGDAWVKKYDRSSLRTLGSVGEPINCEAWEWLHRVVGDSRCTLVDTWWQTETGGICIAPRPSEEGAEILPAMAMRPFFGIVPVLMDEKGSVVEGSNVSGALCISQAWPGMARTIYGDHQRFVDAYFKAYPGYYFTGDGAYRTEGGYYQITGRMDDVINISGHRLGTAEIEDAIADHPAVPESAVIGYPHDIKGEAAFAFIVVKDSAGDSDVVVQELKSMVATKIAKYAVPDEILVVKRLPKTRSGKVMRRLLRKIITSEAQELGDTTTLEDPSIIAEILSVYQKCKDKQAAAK
Briefly: Acyl-CoA synthetases selectivity panel: ACSS1. The data set is classed as biochemical. The settings on record: human recombinant protein, substrate acetate, AMP readout by HPLC; read-out: HPLC based activity assays IC50 (UM) ACSS1. From the text:
(§1) The biochemical assays for testing the selectivity of the compounds according to this invention, were done using human recombinant proteins (Cusabio, China). The readout of the assays was AMP levels, the […] of the reactions, by HPLC method. The acyl substrates (Sigma-Aldrich) of the assays were as followed: ACSS1/ACSS2—Acetate, AACS-Acetoacetyl, ACSF2—Octanoate and ACSL5—Palmitate. The protein in this panel include ACSS1, the closest homolog of ACSS2, in addition to representative short/medium/long chain acyl-CoA syntatases.

Data set [4] deals with T1, ACSS2. The experiment in a line: Acyl-CoA synthetases selectivity panel: ACSS2. In kind it is biochemical. The settings on record: human recombinant protein, substrate acetate, AMP readout by HPLC; read-out: HPLC based activity assays IC50 (UM) ACSS2. Also noted: purchased Cusabio, China.
From the text: as §1

A further data set concerns the target T3, ACSF2 (Homo sapiens, UniProt Q96CM8).
T3 construct: purchased Cusabio, China
T3 sequence (Q96CM8 42-615): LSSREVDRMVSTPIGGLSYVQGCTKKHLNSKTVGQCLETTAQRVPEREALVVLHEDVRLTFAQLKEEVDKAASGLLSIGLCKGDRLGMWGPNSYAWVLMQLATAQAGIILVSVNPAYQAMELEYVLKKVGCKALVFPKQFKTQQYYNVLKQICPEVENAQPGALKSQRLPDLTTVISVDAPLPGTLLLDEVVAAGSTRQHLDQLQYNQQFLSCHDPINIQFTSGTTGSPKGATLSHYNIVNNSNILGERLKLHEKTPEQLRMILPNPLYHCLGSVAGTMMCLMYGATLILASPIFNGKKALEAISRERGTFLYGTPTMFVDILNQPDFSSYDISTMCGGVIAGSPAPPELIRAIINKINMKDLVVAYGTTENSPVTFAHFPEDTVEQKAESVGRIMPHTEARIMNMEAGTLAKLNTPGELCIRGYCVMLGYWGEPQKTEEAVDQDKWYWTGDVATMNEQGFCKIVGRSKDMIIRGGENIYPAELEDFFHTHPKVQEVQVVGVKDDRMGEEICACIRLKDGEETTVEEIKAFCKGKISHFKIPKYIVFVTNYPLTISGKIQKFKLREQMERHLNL
Briefly: Acyl-CoA synthetases selectivity panel: ACSF2. In kind it is biochemical. Particulars: human recombinant protein, substrate octanoate, AMP readout by HPLC; read-out: HPLC based activity assays IC50 (UM) ACSF2.
From the text: as §1

For the next data set, the target named is T4, AACS (Homo sapiens, UniProt Q86V21).
T4 construct: purchased Cusabio, China
T4 sequence (Q86V21 1-672): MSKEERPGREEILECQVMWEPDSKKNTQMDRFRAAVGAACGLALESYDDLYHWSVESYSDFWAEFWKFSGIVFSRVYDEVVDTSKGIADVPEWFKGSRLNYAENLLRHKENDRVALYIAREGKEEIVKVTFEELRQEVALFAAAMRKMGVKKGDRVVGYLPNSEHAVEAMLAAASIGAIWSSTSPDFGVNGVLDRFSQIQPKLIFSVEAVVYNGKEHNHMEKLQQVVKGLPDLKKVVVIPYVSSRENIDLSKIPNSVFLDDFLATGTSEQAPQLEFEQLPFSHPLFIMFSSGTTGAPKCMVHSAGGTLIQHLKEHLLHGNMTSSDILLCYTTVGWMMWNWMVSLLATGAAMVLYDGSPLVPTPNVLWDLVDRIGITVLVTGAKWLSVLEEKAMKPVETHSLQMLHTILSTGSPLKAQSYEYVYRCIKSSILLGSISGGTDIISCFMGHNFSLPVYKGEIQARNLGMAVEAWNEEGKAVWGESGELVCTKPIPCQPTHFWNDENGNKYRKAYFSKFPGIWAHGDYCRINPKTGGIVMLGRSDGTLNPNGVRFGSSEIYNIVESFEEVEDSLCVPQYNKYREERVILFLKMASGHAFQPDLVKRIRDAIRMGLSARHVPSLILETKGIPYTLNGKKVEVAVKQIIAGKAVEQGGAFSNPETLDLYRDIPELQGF
Briefly: Acyl-CoA synthetases selectivity panel: AACS. In kind it is biochemical. Particulars: human recombinant protein, substrate acetoacetyl, AMP readout by HPLC; read-out: HPLC based activity assays IC50 (UM) AACS.
From the text: as §1

Another data set addresses T5, ACSL5 (Homo sapiens, UniProt Q9ULC5).
T5 construct: purchased Cusabio, China
T5 sequence (Q9ULC5 1-683): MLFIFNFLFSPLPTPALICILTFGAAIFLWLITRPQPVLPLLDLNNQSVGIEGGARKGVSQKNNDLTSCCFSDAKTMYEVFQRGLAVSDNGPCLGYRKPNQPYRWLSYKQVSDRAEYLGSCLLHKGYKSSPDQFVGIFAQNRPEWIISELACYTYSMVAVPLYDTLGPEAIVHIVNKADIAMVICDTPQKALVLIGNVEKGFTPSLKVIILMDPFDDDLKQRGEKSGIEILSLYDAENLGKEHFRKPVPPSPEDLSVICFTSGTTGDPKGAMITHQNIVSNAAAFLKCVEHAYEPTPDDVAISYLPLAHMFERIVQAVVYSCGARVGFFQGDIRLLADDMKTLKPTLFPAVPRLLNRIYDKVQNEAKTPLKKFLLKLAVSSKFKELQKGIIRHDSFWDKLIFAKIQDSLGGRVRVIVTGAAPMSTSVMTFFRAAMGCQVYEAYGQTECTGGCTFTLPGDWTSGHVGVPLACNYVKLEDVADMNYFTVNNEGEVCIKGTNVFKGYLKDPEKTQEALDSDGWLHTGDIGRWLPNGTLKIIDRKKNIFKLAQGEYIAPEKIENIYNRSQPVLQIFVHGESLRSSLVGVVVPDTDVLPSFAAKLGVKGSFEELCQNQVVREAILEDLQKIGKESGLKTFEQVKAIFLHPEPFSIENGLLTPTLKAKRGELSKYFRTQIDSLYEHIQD
Briefly: Acyl-CoA synthetases selectivity panel: ACSL5. The data set is classed as biochemical. Particulars: human recombinant protein, substrate palmitate, AMP readout by HPLC; read-out: HPLC based activity assays IC50 (UM) ACSL5.
From the text: as §1

The nature of data set [5]: Pharmacokinetic profile in mice (oral and iv). The data set is classed as in vivo. Particulars: mouse, plasma.

T1 sequence (Q9NR19 whole entry): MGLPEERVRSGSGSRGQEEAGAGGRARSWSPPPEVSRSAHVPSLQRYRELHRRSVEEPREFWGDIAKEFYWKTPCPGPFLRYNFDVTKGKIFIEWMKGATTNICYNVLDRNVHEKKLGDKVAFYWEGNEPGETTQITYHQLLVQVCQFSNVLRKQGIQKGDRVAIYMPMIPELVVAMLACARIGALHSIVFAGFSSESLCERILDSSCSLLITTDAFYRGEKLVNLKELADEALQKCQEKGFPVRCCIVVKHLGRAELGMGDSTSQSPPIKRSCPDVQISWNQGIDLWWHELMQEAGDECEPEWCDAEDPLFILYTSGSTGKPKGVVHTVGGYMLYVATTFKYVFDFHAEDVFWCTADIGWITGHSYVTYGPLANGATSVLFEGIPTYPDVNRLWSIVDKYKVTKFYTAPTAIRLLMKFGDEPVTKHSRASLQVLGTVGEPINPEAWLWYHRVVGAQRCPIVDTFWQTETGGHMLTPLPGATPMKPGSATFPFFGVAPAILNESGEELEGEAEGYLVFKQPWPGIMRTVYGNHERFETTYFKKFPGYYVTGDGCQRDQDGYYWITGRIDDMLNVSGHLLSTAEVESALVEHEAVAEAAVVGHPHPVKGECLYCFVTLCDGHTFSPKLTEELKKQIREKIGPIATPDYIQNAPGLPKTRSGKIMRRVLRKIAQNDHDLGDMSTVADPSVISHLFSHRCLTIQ

Turning to `CC1=NN(c2ccc(OC(F)F)cc2)C(=O)C1C(=O)N[C@H]1CC[C@@H](O)[C@@H](O)C1` (stereo partly drawn) [compound 307, 1-(4-(difluoromethoxy)phenyl)-N-((1S,3S,4R)-3,4-dihydroxycyclohexyl)-3-methyl-5-oxo-4,5-dihydro-1H-pyrazole-4-carboxamide], the IC50 on ACSS2 [1] was more than 100 nM; on ACSS2 [2], 0.01 to 6 nM.

As to `CC1=NN(c2ccc(OC(F)F)cc2)C(=O)C1C(=O)Nc1cccc(C(C)(F)F)c1` (stereo not shown) [compound 298, N-(3-(1,1-difluoroethyl)phenyl)-1-(4-(difluoromethoxy)phenyl)-3-methyl-5-oxo-4,5-dihydro-1H-pyrazole-4-carboxamide], the “efficacy in a model that does not utilize acetate (HCT116)” value in the data set on HCT116 is listed as “no efficacy”. Moreover, in data set [3], the “tumor growth in MDA-MB-468 xenograft model” value is listed as “significant tumor growth delay”.

Turning to `COc1ccc(N2N=C(C)C(C(=O)Nc3cccc(C(C)(F)F)c3)C2=O)cc1` (stereo not shown) [compound 265, N-(3-(1,1-difluoroethyl)phenyl)-1-(4-methoxyphenyl)-3-methyl-5-oxo-4,5-dihydro-1H-pyrazole-4-carboxamide], the IC50 is 0.5 to 50 nM on ACSS2 [1]; 1000 to 10000 nM at ACSS1; less than 1 nM at ACSS2 [4]; 152000 nM at ACSF2; 171000 nM at AACS; more than 100000 nM at ACSL5. Also, the concentration for half-maximal inhibition (IC50) at ACSS2 [2] fell in the range of 0.01 to 6 nM. In the data set on HCT116, the “efficacy in a model that does not utilize acetate (HCT116)” value is reported as “no efficacy”. The bioavailability in data set [5] (oral 5 mg/kg, iv 1 mg/kg) was found to be 74%. In addition, in data set [5] (oral 5 mg/kg, iv 1 mg/kg), the clearance is 0.59 mL/min/kg. Further, the half-life in data set [5] (po, single 5 mg/kg dose, read-out: t½ (converted)) is 6.51 h. The “tumor growth in MDA-MB-468 xenograft model” value in data set [3] is listed as “significant tumor growth delay; also recorded: inhibits tumor growth”.

Broadly, the IC50 is the point on the concentration scale where inhibition reaches its midpoint. One may read the bioavailability as dose-corrected exposure relative to a reference, in per cent. Lower therefore signals poor availability.

The values above are taken from patent publication US20250186433A1, “ACSS2 INHIBITORS AND METHODS OF USE THEREOF” (EpiVario, Inc., priority 2017, published 2025).
